Earlier results on 1 compound are cited in patent publication US20030162725A1, “Synergistic pharmaceutical combinations for treating obesity with EGCG” (priority 2002, published 2003).

The data set deals with mouse.

For `N[C@@H](Cc1c[nH]c2ccc(O)cc12)C(=O)O` [5-HTP, 5-hydroxytryptophan], the LD50 i.p. (i.p., species not restated (studies in the rat and mouse)) was 1400 mg/kg. For the setting “per os in the mouse”, the LD50 per os is on record as 2500 mg/kg.
